Assay results as given in patent publication US4808621A, “Trans-6-[2-(N-heteroaryl-3,5-disubstituted)pyrazol-4-yl)-ethyl]- or ethenyl]tetrahydro-4-hydroxypyran-2-one inhibitors of cholesterol biosynthesis” (Warner-Lambert Company, priority 1987, dated 1989).

Legend:
[1] = system: sterol synthesis by rat liver homogenate; experiment: CSI screen: inhibition of incorporation of 14C-acetate into nonsaponifiable lipid by rat liver homogenate (sterol synthesis); format: biochemical; details: 50% inhibition of sterol synthesis over a one-hour period, liver homogenate of cholestyramine-fed rats
Procedure: The ability of compounds of the present invention to inhibit the biosynthesis of cholesterol was measured by two methods. A first method (designated CSI screen) utilized the procedure described by R. E. Dugan et al., Archiv. Biochem. Biophys., (1972), 152, 21-27. In this method, the level of HMG-CoA enzyme activity in standard laboratory rats is increased by feeding the rats a chow diet containing 5% cholestyramine for four days, after which the rats are sacrificed.
The rat livers are homogenized, and the incorporation of ^14 C-acetate into nonsaponifiable lipid by the rat liver homogenate is measured. The micromolar concentration of compound required for 50% inhibition of sterol synthesis over a one-hour period is measured, and expressed as an IC50 value.

HMG-CoA reductase = target: T1, HMG-CoA reductase (Rattus norvegicus, UniProt P51639); experiment: COR screen: conversion of 14C-HMG-CoA to 14C-mevalonate by purified HMG-CoA reductase; format: biochemical; details: purified enzyme preparation of HMG-CoA reductase, 14C-HMG-CoA converted to 14C-mevalonate
T1 sequence (P51639 1-887): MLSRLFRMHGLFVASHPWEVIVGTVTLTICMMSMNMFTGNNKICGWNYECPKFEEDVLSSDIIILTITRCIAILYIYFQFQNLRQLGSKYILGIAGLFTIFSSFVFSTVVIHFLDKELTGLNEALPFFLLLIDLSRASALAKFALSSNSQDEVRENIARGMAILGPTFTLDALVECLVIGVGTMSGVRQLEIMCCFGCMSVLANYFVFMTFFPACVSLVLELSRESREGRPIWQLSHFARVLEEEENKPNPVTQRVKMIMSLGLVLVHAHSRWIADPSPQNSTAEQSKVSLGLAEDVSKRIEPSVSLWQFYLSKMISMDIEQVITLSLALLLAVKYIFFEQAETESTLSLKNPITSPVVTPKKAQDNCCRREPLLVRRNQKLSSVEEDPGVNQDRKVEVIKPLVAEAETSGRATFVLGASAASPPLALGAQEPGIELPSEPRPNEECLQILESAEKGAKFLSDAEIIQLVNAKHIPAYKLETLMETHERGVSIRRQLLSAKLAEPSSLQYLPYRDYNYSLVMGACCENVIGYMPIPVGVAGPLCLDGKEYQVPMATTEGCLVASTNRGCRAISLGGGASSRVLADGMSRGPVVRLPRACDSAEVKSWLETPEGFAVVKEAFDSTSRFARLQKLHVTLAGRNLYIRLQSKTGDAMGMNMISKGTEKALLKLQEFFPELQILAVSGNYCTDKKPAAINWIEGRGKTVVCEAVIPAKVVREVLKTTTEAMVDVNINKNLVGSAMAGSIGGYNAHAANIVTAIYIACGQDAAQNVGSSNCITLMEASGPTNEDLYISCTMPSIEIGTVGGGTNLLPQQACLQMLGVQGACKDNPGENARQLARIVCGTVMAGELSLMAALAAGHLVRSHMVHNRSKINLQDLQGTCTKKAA
Procedure: A second method (designated COR screen) employed the procedure detailed by T. Kita, et al., J. Clin. Invest., (1980), 66: 1094-1100. In this method, the amount of ^14 C-HMG-CoA converted to ^14 C-mevalonate in the presence of a purified enzyme preparation of HMG-CoA reductase was measured. The micromolar concentration of compound required for 50% inhibition of cholesterol synthesis was measured and recorded as an IC50 value.

## CC(C)c1nn(-c2ccccn2)c(-c2ccc(F)cc2)c1CC[C@H]1C[C@H](O)CC(=O)O1 (relative stereo) [Compound 1, trans-6-[2-[5-(4-fluorophenyl)-3-(1-methylethyl)-1-(2-pyridinyl)-1H-pyrazol-4-yl]ethyl]tetrahydro-4-hydroxy-2H-pyran-2-one]
[1]
  IC50: 39 nM
HMG-CoA reductase
  IC50: 110 nM

## CC[C@H](C)C(=O)O[C@H]1CCC=C2C=C[C@H](C)[C@H](CC[C@@H]3C[C@@H](O)CC(=O)O3)[C@H]21 [Compactin, reference compound]
[1]
  IC50: 26 nM
